Patent US11823799B2, “Method for identifying personalized therapeutic strategies for patients affected with a cancer” (UNIVERSITE DE STRASBOURG, priority 2015, dated 2023)

Experiments:
[1] = tested on: glioblastoma patient HB21 tumor; experiment: Glioblastoma patient HB21 biopsy cells grafted orthotopically in mouse brain, tumor volume; type: in vivo, Immunocompromised mice; conditions: for tumor growth inhibition compared to standard of care (Temozolomide): SB-3CT 25 mg/kg p.o, Cediranib 6 mg/kg p.o, 21 days after first treatment
Description: Immunocompromised mice were anesthetized with isoflurane 3% (BAXTER), under 0.5 L 02, and received a subcutaneous injection of ketofen 1% 1.5 mL/Kg (MERIAL). The scalp was incised and 100 000 cells of the dissociated glioblastoma biopsy were engrafted with a 2 μL Hamilton syringe (HARVARD […]; HAM-88400) mounted on a stereotaxic set up (HARVARD […]) at the following coordinates from the bregma x: −2 mm; y: +1 mm; z: −3.5 mm at a speed of 0.66 μl/min, 5 minutes after the syringe introduction. After injection, the syringe was kept in place for 5 minutes, and then raised for 1 mm per minute. The scalp was sutured with 7.5 mm Michel stainless steel wound clips (A75, PERFECT). Animals were allowed to recover under a heat lamp several minutes before they were returned to their cage.
After 52 days of tumor development, mice were randomized in 4 groups of treatment. First group was treated with Temozolomide 40 mg/kg (n=9) i.v during 5 consecutive days, second one was treated with SB-3CT 25 mg/kg (n=9) p.o during 10 days interrupted by 2 days of wash-out after 5 days, a third group was treated with Cediranib 6 mg/kg (n=10) p.o during 10 days interrupted by 2 days of wash-out after 5 days, a last one group was treated with Erlotinib 50 mg/kg (n=9) p.o 1 time per week during 3 weeks. The administration volume was 100 μL. On the day of termination (21 days after the first treatment), all mice are sacrificed by cervical dislocation, brains are removed (38 total samples), and included in cryo-embedding media OCT© and stored at −80° C.
Brains were cut in 20 μm sections with a cryostat (LEICA CM 3050S), mounted on blade (Superfrost Super Plus), and stored at −20° C. In order to visualize the tumor, brain sections were thawed in distilled water and Stained with 2% diluted Giemsa's staining (SUBRA; RAL diagnostic 320310-1000) in distilled water at 37° C. for 2 hours. […] Tumor volume was calculated by the addition of every partial volume: [Vtotal=Σpartial volumes=Σd1× (S1+S2)/2+d2×(S2+S3)/2+ . . . +dn× (Sn+Sn+1)]. […]

PC model (HID-28) [2] = experiment: Prostate tumor PDX model HID-28, subcutaneous tumor growth in mice; type: in vivo, nude mice; conditions: Cediranib 6 mg/kg p.o; for effect on tumor growth / tumor development: Docetaxel 20 mg/kg i.p, Erlotinib 50 mg/kg p.o, vs vehicle
Source text: Small tumor fragments are subcutaneously implanted in the flank of athymic nude mice. When tumor size reached 1000 to 2000 mm^3, tumors are surgically excised and small tumor fragments (approximately 40 mm^3) are implanted in the subcutaneous tissue of the interscapular region of 82 nude mice. 36 mice with established growing tumors and tumor volume ranging 60 to 200 mm^3 are included in the study and randomized according to their individual tumor volume into 4 groups of 9 mice. Tumor signature is verified during the amplification and also after engraftment.
The first group is treated with Erlotinib 50 mg/kg (n=9) p.o 1 time per week during 3 weeks, the second is treated with Cediranib 6 mg/kg (n=9) p.o during 3 cycles of 5 days interrupted by 2 days of wash-out, the third group with a mix of the vehicle of Erlotinib and Cediranib (sodium carboxymethylcellulose 0.5%, captisol 15%, DMSO 1% and methylcellulose 0.5%), and the last group is treated with Docetaxel 20 mg/kg (n=9) i.p during 2 cycles of 1 injection every 3 weeks.
Tumor volume is evaluated biweekly by measuring tumor diameters, with a caliper. The formula TV (mm^3)=[length (mm)×width (mm)^2]/2 will be used, where the length and the width are the longest and the shortest diameters of the tumor, respectively.
On the day of termination (28 days after the first treatment), mice are sacrificed by cervical dislocation, tumor are collected from all mice (36 tumor samples totally) and serum from 5 mice per group is collected (20 serum samples totally).

CC model (CR-IC-028M) = experiment: Colorectal tumor PDX model CR-IC-028M, subcutaneous tumor growth in mice; type: in vivo, SWISS Nude mice; conditions: Cediranib 6 mg/kg p.o
Source text: Small tumor fragments were subcutaneously implanted in the right flank of 9 CB17 SCID mice. When tumor size reached 500-700 mm^3, tumors were surgically excised and small tumor fragments were subcutaneously implanted in the right flank of 52 recipient SWISS Nude mice.
The treatment started when tumors reached a mean volume of 200-300 mm^3. 40 animals out were randomized according to their individual tumor volume into 4 groups each of 10 animals using Vivo Manager® software (Biosystemes, Couternon, France). A statistical test (analysis of variance) was performed to test for homogeneity between groups.
The administration volume for the two models was 10 mL/kg (200 μL/mouse of 20 g) adjusted to the most recent individual body weight of mice.
The tumor volume was calculated by [(a×b^2) 2], where a is the largest tumor diameter and b the perpendicular tumor diameter measured with a caliper every 3 days.
On the day of termination (31 days after the first treatment), mice were sacrificed (40 total samples) by gas anesthesia over-dosage (Isoflurane) followed by cervical dislocation or exsanguination and tumor were collected from all mice.

recurrent glioblastoma = conditions: cited from earlier work
PC model (HID-28) [3] = conditions: cited from earlier work

COc1cc2c(Oc3ccc4[nH]c(C)cc4c3F)ncnc2cc1OCCCN1CCCC1 [Cediranib]
tumor growth inhibition compared to standard of care (Temozolomide) [1]: identical to the one obtained with the standard of care | effect on tumor growth / tumor development (PC model (HID-28) [2]): very significant anti-tumor activity | tumor volume change (PC model (HID-28) [2]; end point of the protocol, p=0.002, T-test, evolution of tumor growth P<0.0001): −78% | effect on tumor growth / tumor development (CC model (CR-IC-028M); Cetuximab 12.5 mg/kg i.p, Trastuzumab 1 mg/kg i.p, vs vehicle): very significant anti-tumor activity | tumor volume change (CC model (CR-IC-028M); end point of the protocol, p=0.01, T-test, evolution of tumor growth P<0.0001): −50%

Bevacizumab
PFS and OS advantage in phase III trials (recurrent glioblastoma; AVAglio and RTOG phase III trials (Soffietti 2014)): significant advantage for Bevacizumab treated patients in term of PFS but not of OS | patients who seem to benefit from treatment (recurrent glioblastoma; overall): less than 50%

C#Cc1cccc(Nc2ncnc3cc(OCCOC)c(OCCOC)cc23)c1 [Erlotinib]
efficacy when compared to all other drugs ([1]; Erlotinib 50 mg/kg p.o 1 time per week, 3 weeks, not significantly different): −60% | effect on tumor growth / tumor development (PC model (HID-28) [2]): not efficient in blocking tumor development

O=S(=O)(CC1CS1)c1ccc(Oc2ccccc2)cc1 (stereo not drawn) [SB-3CT]
tumor growth inhibition compared to standard of care (Temozolomide) [1]: identical to the one obtained with the standard of care

CC(=O)O[C@@]12CO[C@@H]1C[C@H](O)[C@@]1(C)C(=O)[C@H](O)C3=C(C)[C@@H](OC(=O)[C@H](O)[C@@H](NC(=O)OC(C)(C)C)c4ccccc4)C[C@@](O)([C@@H](OC(=O)c4ccccc4)[C@H]21)C3(C)C [Docetaxel]
effect on tumor growth / tumor development (PC model (HID-28) [2]): tumor growth was inhibited | response of the model in previous results (PC model (HID-28) [3]): responsive
